Data taken from doi:10.1101/2023.10.20.563248v1 (biorxiv, 2023).

Experiments:
Details in all cases: 1 µM; inhibitor
TLK1 = TLK1 (Homo sapiens, UniProt Q9UKI8)
DYRK2 = DYRK2 (Homo sapiens, UniProt Q92630)
MYLK3 = MYLK3 (Homo sapiens, UniProt Q32MK0)
EPHA5 = EPHA5 (Homo sapiens, UniProt P54756)
SGK1 = SGK1 (Homo sapiens, UniProt O00141)
KIT = KIT (Homo sapiens, UniProt P10721)
CAMK2G = CAMK2G (Homo sapiens, UniProt Q13555)
CHK1 = CHK1 (Homo sapiens, UniProt O14757)
RIPK5 = RIPK5 (Homo sapiens, UniProt Q6XUX3)
NEK1 = NEK1 (Homo sapiens, UniProt Q96PY6)
EPHB1 = EPHB1 (Homo sapiens, UniProt P54762)
ERBB4 = ERBB4 (Homo sapiens, UniProt Q15303)
MUSK = MUSK (Homo sapiens, UniProt O15146)
SNK = SNK (Homo sapiens, UniProt Q9NYY3)
CDK2/CycA2 = CDK2/CycA2 (Homo sapiens, UniProt P24941)
TBK1 = TBK1 (Homo sapiens, UniProt Q9UHD2)
COT = COT (Homo sapiens, UniProt P41279)
RPS6KA1 = RPS6KA1 (Homo sapiens, UniProt Q15418)
CDK7 = CDK7 (Homo sapiens, UniProt P50613)
ERK7 = ERK7 (Homo sapiens, UniProt Q8TD08)
VRK1 = VRK1 (Homo sapiens, UniProt Q99986)
EPHB2 = EPHB2 (Homo sapiens, UniProt P29323)
CK1e = CK1e (Homo sapiens, UniProt P49674)
JAK1 = JAK1 (Homo sapiens, UniProt P23458)
GSK3A = GSK3A (Homo sapiens, UniProt P49840)
HIPK3 = HIPK3 (Homo sapiens, UniProt Q9H422)
CAMK1D = CAMK1D (Homo sapiens, UniProt Q8IU85)
CDK5 = CDK5 (Homo sapiens, UniProt Q00535)
TEC = TEC (Homo sapiens, UniProt P42680)
CDK13 = CDK13 (Homo sapiens, UniProt Q14004)
PASK = PASK (Homo sapiens, UniProt Q96RG2)

Sequence of MYLK3 (Q32MK0 whole entry): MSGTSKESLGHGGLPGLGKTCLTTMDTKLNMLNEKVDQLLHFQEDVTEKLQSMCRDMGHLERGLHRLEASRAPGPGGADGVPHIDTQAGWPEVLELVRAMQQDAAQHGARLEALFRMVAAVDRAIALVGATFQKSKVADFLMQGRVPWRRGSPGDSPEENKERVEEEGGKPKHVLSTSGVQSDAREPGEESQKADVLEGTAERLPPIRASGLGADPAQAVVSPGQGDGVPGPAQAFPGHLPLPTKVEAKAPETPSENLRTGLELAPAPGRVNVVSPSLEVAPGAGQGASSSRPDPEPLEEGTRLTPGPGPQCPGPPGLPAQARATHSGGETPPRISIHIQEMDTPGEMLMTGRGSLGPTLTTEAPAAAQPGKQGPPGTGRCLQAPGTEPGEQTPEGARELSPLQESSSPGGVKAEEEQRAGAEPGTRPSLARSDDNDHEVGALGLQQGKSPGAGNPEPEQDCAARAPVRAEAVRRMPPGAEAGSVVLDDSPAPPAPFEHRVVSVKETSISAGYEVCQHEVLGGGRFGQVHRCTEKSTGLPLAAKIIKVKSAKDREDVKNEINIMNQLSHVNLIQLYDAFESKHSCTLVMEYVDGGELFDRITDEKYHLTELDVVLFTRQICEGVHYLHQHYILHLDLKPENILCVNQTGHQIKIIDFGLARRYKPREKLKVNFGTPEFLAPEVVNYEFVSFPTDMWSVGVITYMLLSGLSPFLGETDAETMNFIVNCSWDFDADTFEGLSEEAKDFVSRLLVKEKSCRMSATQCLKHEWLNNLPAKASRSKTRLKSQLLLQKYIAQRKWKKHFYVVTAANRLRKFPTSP
Sequence of CAMK2G (Q13555 whole entry): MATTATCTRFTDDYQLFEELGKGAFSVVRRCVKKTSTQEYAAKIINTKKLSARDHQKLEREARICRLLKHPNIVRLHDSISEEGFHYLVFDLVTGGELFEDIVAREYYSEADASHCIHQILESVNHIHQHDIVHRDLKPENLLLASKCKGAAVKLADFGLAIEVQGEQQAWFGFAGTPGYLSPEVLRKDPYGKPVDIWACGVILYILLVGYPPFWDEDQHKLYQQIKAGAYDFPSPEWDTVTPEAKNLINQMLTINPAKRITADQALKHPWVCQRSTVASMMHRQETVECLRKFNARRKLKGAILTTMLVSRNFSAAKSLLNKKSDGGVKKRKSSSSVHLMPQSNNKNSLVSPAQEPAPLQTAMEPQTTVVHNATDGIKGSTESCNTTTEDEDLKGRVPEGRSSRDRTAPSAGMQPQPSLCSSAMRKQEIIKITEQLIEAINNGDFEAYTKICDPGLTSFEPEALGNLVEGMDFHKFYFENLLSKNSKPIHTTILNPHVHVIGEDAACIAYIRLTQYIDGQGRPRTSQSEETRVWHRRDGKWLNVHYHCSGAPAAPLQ
Sequence of TEC (P42680 whole entry): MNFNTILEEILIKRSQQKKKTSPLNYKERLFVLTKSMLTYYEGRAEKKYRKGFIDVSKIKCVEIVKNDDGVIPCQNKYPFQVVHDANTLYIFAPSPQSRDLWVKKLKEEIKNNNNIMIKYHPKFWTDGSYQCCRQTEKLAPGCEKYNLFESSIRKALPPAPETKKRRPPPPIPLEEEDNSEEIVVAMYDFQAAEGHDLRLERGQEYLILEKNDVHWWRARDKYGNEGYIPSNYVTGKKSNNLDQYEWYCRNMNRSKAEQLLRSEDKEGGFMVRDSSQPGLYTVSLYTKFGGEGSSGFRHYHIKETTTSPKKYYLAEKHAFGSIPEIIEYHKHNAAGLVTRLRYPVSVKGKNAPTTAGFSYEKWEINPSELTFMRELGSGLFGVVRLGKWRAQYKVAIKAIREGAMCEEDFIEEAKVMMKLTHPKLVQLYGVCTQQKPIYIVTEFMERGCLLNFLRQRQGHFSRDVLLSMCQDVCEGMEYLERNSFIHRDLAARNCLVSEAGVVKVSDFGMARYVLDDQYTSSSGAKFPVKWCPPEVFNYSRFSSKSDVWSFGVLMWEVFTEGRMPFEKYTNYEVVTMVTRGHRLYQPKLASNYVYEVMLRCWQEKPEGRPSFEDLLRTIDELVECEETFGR
Sequence of RPS6KA1 (Q15418 whole entry): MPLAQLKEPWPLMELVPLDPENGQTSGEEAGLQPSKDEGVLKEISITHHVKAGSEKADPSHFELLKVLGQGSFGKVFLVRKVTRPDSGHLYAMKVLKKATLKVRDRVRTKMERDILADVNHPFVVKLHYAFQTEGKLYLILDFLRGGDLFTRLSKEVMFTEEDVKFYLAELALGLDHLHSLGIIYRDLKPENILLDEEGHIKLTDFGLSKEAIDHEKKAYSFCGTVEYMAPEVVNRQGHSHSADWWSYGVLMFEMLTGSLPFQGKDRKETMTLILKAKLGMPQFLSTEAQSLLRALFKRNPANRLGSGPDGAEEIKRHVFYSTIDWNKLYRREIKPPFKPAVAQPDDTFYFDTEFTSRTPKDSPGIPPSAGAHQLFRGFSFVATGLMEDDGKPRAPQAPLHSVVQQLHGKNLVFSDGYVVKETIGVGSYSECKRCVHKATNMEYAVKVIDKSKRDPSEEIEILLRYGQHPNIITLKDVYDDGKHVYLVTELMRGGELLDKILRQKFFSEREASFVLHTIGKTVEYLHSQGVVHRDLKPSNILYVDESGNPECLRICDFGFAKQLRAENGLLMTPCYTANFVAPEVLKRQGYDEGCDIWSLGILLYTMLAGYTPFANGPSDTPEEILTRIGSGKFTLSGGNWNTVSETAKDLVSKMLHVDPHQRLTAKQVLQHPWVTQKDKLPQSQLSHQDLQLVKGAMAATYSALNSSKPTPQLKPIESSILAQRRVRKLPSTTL
Sequence of SNK (Q9NYY3 whole entry): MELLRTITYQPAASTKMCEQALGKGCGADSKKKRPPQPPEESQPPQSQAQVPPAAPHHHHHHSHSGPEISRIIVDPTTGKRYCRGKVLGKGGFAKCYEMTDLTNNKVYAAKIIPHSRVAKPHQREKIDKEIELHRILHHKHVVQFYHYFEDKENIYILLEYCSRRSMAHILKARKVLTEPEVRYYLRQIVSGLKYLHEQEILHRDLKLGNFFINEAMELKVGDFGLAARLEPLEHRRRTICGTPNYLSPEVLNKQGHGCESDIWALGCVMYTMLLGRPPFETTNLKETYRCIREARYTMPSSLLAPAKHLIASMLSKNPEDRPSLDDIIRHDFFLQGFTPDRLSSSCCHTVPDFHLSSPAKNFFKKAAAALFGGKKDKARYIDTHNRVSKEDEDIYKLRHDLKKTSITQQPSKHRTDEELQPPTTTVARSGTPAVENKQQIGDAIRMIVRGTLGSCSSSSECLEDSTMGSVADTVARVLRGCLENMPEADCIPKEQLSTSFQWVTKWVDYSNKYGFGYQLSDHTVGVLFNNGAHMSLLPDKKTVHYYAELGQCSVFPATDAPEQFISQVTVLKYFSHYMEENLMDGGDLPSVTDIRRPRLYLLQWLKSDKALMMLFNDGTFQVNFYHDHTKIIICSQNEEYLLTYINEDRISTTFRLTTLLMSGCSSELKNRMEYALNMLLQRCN
Sequence of CDK5 (Q00535 whole entry): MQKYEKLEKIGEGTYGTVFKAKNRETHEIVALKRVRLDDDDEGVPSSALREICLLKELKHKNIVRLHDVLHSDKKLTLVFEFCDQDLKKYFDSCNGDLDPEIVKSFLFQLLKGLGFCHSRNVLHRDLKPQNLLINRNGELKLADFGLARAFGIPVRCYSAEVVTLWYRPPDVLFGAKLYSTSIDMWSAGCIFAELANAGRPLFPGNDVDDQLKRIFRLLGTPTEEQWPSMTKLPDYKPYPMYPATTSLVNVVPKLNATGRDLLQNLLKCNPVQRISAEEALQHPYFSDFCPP
Sequence of SGK1 (O00141 whole entry): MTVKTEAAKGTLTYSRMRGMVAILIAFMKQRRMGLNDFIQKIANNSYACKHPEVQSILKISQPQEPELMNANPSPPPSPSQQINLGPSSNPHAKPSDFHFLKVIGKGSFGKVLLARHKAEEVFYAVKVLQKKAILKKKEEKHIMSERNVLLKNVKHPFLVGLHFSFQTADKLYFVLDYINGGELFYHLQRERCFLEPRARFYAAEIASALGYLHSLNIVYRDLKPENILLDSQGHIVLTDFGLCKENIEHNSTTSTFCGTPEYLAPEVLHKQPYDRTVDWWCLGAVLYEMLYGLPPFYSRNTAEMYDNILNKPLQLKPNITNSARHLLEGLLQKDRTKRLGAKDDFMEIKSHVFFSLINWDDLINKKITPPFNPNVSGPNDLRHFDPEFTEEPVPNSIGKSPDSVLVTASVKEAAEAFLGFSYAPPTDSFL
Sequence of TBK1 (Q9UHD2 whole entry): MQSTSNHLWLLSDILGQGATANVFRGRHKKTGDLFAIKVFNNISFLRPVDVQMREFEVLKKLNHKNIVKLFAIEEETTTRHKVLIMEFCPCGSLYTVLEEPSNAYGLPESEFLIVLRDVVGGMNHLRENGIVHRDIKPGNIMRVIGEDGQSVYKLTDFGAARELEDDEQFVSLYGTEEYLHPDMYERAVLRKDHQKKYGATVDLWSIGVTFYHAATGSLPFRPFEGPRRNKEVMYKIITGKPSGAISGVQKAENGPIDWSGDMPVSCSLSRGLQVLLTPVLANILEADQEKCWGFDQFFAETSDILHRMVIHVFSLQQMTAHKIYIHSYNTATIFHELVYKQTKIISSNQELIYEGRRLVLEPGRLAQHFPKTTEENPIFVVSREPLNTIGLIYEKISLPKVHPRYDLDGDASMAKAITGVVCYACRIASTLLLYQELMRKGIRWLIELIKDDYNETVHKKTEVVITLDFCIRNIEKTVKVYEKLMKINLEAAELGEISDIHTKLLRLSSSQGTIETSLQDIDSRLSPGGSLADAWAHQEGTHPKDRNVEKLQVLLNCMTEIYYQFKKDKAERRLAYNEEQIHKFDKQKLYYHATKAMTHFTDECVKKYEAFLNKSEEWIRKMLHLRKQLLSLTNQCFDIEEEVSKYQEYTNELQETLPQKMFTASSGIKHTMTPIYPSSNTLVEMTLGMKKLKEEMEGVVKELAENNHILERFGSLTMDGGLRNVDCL

For O=C1NCCCCCNc2nc(c3ccccc3n2)Nc2cc1[nH]n2 [21c, (Z)-3^1H-2,5,11-triaza-1(4,2)-quinazolina-3(3,5)-pyrazolacycloundecaphan-4-one], the “21c Remaining activity, percent of control [%]” value (TLK1) was 92.4%, the “21c Remaining activity, percent of control [%]” value (DYRK2) was 91.4% and the “21c Remaining activity, percent of control [%]” value (MYLK3) was 86.4%. The “21c Remaining activity, percent of control [%]” value (EPHA5) was 98.4%, the “21c Remaining activity, percent of control [%]” value (SGK1) was 90.0% and the “21c Remaining activity, percent of control [%]” value (KIT) was 69.4%. The “21c Remaining activity, percent of control [%]” value (CAMK2G) was 132.6%, the “21c Remaining activity, percent of control [%]” value (CHK1) was 112.0% and the “21c Remaining activity, percent of control [%]” value (RIPK5) was 122.0%. The “21c Remaining activity, percent of control [%]” value (NEK1) was 79.1%, the “21c Remaining activity, percent of control [%]” value (EPHB1) was 77.1% and the “21c Remaining activity, percent of control [%]” value (ERBB4) was 90.7%. The “21c Remaining activity, percent of control [%]” value (MUSK) was 83.0%, the “21c Remaining activity, percent of control [%]” value (SNK) was 78.3% and the “21c Remaining activity, percent of control [%]” value (CDK2/CycA2) was 106.1%. The “21c Remaining activity, percent of control [%]” value (TBK1) was 111.6%, the “21c Remaining activity, percent of control [%]” value (COT) was 115.1% and the “21c Remaining activity, percent of control [%]” value (RPS6KA1) was 90.5%. For the same compound, the “21c Remaining activity, percent of control [%]” value (CDK7) was 112.5%, the “21c Remaining activity, percent of control [%]” value (ERK7) was 90.2% and the “21c Remaining activity, percent of control [%]” value (VRK1) was 91.5%. For the same compound, the “21c Remaining activity, percent of control [%]” value (EPHB2) was 100.1%, the “21c Remaining activity, percent of control [%]” value (CK1e) was 103.1% and the “21c Remaining activity, percent of control [%]” value (JAK1) was 88.0%. For the same compound, the “21c Remaining activity, percent of control [%]” value (GSK3A) was 67.3%, the “21c Remaining activity, percent of control [%]” value (HIPK3) was 90.8% and the “21c Remaining activity, percent of control [%]” value (CAMK1D) was 103.0%. For the same compound, the “21c Remaining activity, percent of control [%]” value (CDK5) was 101.3%, the “21c Remaining activity, percent of control [%]” value (TEC) was 91.4% and the “21c Remaining activity, percent of control [%]” value (CDK13) was 101.2%. The “21c Remaining activity, percent of control [%]” value (PASK) was 100.8%.
